{"source": "PubChem BioAssay (NCI)", "assay_in_all_cases": "NCI anticancer screen, dose series, 48 h", "key": {"[1]": {"system": "ACHN renal"}, "[2]": {"system": "SF-268 CNS"}, "[3]": {"system": "HOP-62 NSCLC"}, "[4]": {"system": "OVCAR-5 ovarian"}, "[5]": {"system": "A498 renal"}, "[6]": {"system": "NCI-H522 lung"}, "[7]": {"system": "OVCAR-8 ovarian"}, "[8]": {"system": "HT29 colon"}, "[9]": {"system": "UO-31 renal"}, "[10]": {"system": "KM12 colon"}, "[11]": {"system": "BT-549 breast"}, "[12]": {"system": "MDA-MB-231 breast"}, "[13]": {"system": "LOX IMVI melanoma"}, "[14]": {"system": "OVCAR-3 ovarian"}, "[15]": {"system": "MALME-3M melanoma"}, "[16]": {"system": "HCT-116 colon"}, "[17]": {"system": "MDA-MB-435"}, "[18]": {"system": "SF-539 CNS"}, "[19]": {"system": "RXF 393 renal"}, "[20]": {"system": "HOP-92 NSCLC"}, "[21]": {"system": "786-0 renal"}, "[22]": {"system": "SK-OV-3 ovarian"}, "[23]": {"system": "MOLT-4 leukemia"}, "[24]": {"system": "T-47D breast"}, "[25]": {"system": "RPMI-8226 leukemia"}, "[26]": {"system": "CAKI-1 renal"}, "[27]": {"system": "SK-MEL-5 melanoma"}, "[28]": {"system": "K-562 leukemia"}, "[29]": {"system": "HCC-2998 colon"}}, "note": "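Protocol summary: plate cells (96-well), add compound at 5 concentrations, incubate 48 h, interpolate endpoints linearly. Here, GI50 denotes the concentration required for 50% inhibition of growth. TGI: concentration producing complete growth inhibition.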", "data": [{"smiles": "CCCSc1nc(Nc2ccc(S(N)(=O)=O)cc2)c(C#N)c(-c2cc(OC)c(OC)c(OC)c2)n1", "values": [{"measurement": "GI50", "setting": "[1]", "value": 4.88, "unit": "µM"}, {"measurement": "TGI", "setting": "[1]", "value": "> 100", "unit": "µM"}, {"measurement": "GI50", "setting": "[2]", "value": 9.84, "unit": "µM"}, {"measurement": "TGI", "setting": "[2]", "value": "> 100", "unit": "µM"}, {"measurement": "GI50", "setting": "[3]", "value": 11.1, "unit": "µM"}, {"measurement": "TGI", "setting": "[3]", "value": "> 100", "unit": "µM"}, {"measurement": "GI50", "setting": "[4]", "value": 32.7, "unit": "µM"}, {"measurement": "TGI", "setting": "[4]", "value": "> 100", "unit": "µM"}, {"measurement": "GI50", "setting": "[5]", "value": "> 100", "unit": "µM"}, {"measurement": "TGI", "setting": "[5]", "value": "> 100", "unit": "µM"}, {"measurement": "GI50", "setting": "[6]", "value": 10.7, "unit": "µM"}, {"measurement": "TGI", "setting": "[6]", "value": "> 100", "unit": "µM"}, {"measurement": "GI50", "setting": "[7]", "value": 5, "unit": "µM"}, {"measurement": "TGI", "setting": "[7]", "value": "> 100", "unit": "µM"}, {"measurement": "GI50", "setting": "[8]", "value": 6.89, "unit": "µM"}, {"measurement": "TGI", "setting": "[8]", "value": "> 100", "unit": "µM"}, {"measurement": "GI50", "setting": "[9]", "value": 2.59, "unit": "µM"}, {"measurement": "TGI", "setting": "[9]", "value": "> 100", "unit": "µM"}, {"measurement": "GI50", "setting": "[10]", "value": 4.77, "unit": "µM"}, {"measurement": "TGI", "setting": "[10]", "value": "> 100", "unit": "µM"}, {"measurement": "GI50", "setting": "[11]", "value": 3.24, "unit": "µM"}, {"measurement": "TGI", "setting": "[11]", "value": 32.5, "unit": "µM"}, {"measurement": "GI50", "setting": "[12]", "value": 7.23, "unit": "µM"}, {"measurement": "TGI", "setting": "[12]", "value": "> 100", "unit": "µM"}, {"measurement": "GI50", "setting": "[13]", "value": 3.68, "unit": "µM"}, {"measurement": "TGI", "setting": "[13]", "value": "> 100", "unit": "µM"}, {"measurement": "GI50", "setting": "[14]", "value": 6.07, "unit": "µM"}, {"measurement": "TGI", "setting": "[14]", "value": "> 100", "unit": "µM"}, {"measurement": "GI50", "setting": "[15]", "value": 5.78, "unit": "µM"}, {"measurement": "TGI", "setting": "[15]", "value": 75.4, "unit": "µM"}, {"measurement": "GI50", "setting": "[16]", "value": 4.38, "unit": "µM"}, {"measurement": "TGI", "setting": "[16]", "value": "> 100", "unit": "µM"}, {"measurement": "GI50", "setting": "[17]", "value": 4.9, "unit": "µM"}, {"measurement": "TGI", "setting": "[17]", "value": "> 100", "unit": "µM"}, {"measurement": "GI50", "setting": "[18]", "value": 21.4, "unit": "µM"}, {"measurement": "TGI", "setting": "[18]", "value": "> 100", "unit": "µM"}, {"measurement": "GI50", "setting": "[19]", "value": 2.36, "unit": "µM"}, {"measurement": "TGI", "setting": "[19]", "value": 9.67, "unit": "µM"}, {"measurement": "GI50", "setting": "[20]", "value": 3.98, "unit": "µM"}, {"measurement": "TGI", "setting": "[20]", "value": 63.6, "unit": "µM"}, {"measurement": "GI50", "setting": "[21]", "value": 10.4, "unit": "µM"}, {"measurement": "TGI", "setting": "[21]", "value": "> 100", "unit": "µM"}, {"measurement": "GI50", "setting": "[22]", "value": 55.1, "unit": "µM"}, {"measurement": "TGI", "setting": "[22]", "value": "> 100", "unit": "µM"}, {"measurement": "GI50", "setting": "[23]", "value": 2.53, "unit": "µM"}, {"measurement": "TGI", "setting": "[23]", "value": 8.95, "unit": "µM"}, {"measurement": "GI50", "setting": "[24]", "value": 2.76, "unit": "µM"}, {"measurement": "TGI", "setting": "[24]", "value": 51, "unit": "µM"}, {"measurement": "GI50", "setting": "[25]", "value": 3.56, "unit": "µM"}, {"measurement": "TGI", "setting": "[25]", "value": "> 100", "unit": "µM"}, {"measurement": "GI50", "setting": "[26]", "value": 5.76, "unit": "µM"}, {"measurement": "TGI", "setting": "[26]", "value": "> 100", "unit": "µM"}, {"measurement": "GI50", "setting": "[27]", "value": 2.75, "unit": "µM"}, {"measurement": "TGI", "setting": "[27]", "value": 12.1, "unit": "µM"}, {"measurement": "GI50", "setting": "[28]", "value": 3.52, "unit": "µM"}, {"measurement": "TGI", "setting": "[28]", "value": "> 100", "unit": "µM"}, {"measurement": "GI50", "setting": "[29]", "value": 7.53, "unit": "µM"}, {"measurement": "TGI", "setting": "[29]", "value": "> 100", "unit": "µM"}]}]}
